pIC50: −log10 of the molar value. Structures can show the parent of a compound that is named as a salt.

This assay deals with T1, IRAK4 (Homo sapiens, UniProt Q9NWZ3).
T1 construct: His (N); TEV cleavage site (N)
T1 sequence (Q9NWZ3 1-460): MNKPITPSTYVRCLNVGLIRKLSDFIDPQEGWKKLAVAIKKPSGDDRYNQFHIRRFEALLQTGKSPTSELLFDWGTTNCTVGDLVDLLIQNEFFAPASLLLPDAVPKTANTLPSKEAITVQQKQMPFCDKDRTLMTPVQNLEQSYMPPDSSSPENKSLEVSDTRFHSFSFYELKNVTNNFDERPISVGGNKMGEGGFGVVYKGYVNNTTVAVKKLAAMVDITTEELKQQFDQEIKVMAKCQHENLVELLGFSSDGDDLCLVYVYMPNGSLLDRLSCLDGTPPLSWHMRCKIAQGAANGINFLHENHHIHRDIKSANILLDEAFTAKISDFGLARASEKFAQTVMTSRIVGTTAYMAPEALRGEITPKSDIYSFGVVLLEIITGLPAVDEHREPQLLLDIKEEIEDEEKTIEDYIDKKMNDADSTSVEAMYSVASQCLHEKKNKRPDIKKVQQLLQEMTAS
The assay can be described thus: IRAK4 Enzymatic Assay. It is filed as biochemical. The conditions noted are these: His-TEV-IRAK4 20 ng/well, ATP 2 μM, STK1-biotin peptide 300 nM, 3 hours at 30° C., FlashPlate radioactivity. As to the method: IRAK4 is a human purified recombinant enzyme (His-TEV-IRAK1 (194-712)
IRAK4 hydrolyses ATP, autophosphorylates and phosphorylates a Serine/Threonine generic peptidic substrate (STK: 61ST1BLC from CisBio International based in Bagnols/Cèze FR).
Measurement of IRAK-4 inhibition is performed in streptavidin coated 384 well FlashPlate (PerkinElmer #SMP410A). His-TEV-IRAK4 (20 ng/well), ATP (2 μM, [^33P]ATP 0.25 μCi/well), STK1-biotin peptide (300 nM) and compounds in DMSO (range of concentrations from 20 μM to 1nM) or controls (2% DMSO) are incubated for 3 hours at 30° C. in assay buffer: Hepes pH7.0 50 mM, Fatty acid-free BSA 0.1%, Dithiothreitol DTT 2 mM, MgCl2 10 mM, EGTA 0.5 mM, Tween-20 0.01%, MnCl2 5 mM.
Kinase reaction is stopped by addition of EDTA. Supernatant is discarded, plates are washed three times with 150 mM NaCl and radioactivity is then measured in a Microbeta Trilux reader.
Broadly, the pIC50 is −log10 of the IC50, conventionally taken in molar units. In the case of `Cn1cc(-c2cccc(-c3ncc(-c4cnn(CC(=O)N5CCCCC5)c4)cn3)c2)cn1` [Example 25, 2-(4-{2-[3-(1-Methyl-1H-pyrazol-4-yl)-phenyl]-pyrimidin-5-yl}-pyrazol-1-yl)-1-piperidin-1-yl-ethanone], the pIC50 was 5.30 to 6.00.
With `Cn1cc(-c2ccc(F)c(-c3ncc(-c4cnn([C@H]5CC[C@H](O)CC5)c4)cn3)c2)cn1` [Example 292, 4-(4-{2-[2-Fluoro-5-(1-methyl-1H-pyrazol-4-yl)-phenyl]-pyrimidin-5-yl}-pyrazol-1-yl)-cyclohexanol], the pIC50 was 6.00 to 7.00.
Then `CN(C)C(=O)[C@H]1CC[C@H](n2cc(-c3cnc(-c4cccc(-c5ccc(N)nn5)c4)nc3)cn2)CC1` [Example 239, Trans-4-(4-{2-[3-(6-Amino-pyridazin-3-yl)-phenyl]-pyrimidin-5-yl}-pyrazol-1-yl)-cyclohexanecarboxylic acid dimethylamide], with 6.00 to 7.00.
Regarding `CC(O)CCNC(=O)[C@H]1CC[C@H](n2cc(-c3cnc(-c4cccc(-c5cnn(C)c5)c4)nc3)cn2)CC1` (stereo partly drawn) [Example 228, trans-4-(4-{2-[3-(1-Methyl-1H-pyrazol-4-yl)-phenyl]-pyrimidin-5-yl}-pyrazol-1-yl)-cyclohexanecarboxylic acid (3-hydroxy-butyl)-amide], the pIC50 was more than 7.00.
With `Cn1cc(-c2cccc(-c3ncc(-c4cn(C5CCOCC5)nc4C(=O)N4CC(O)C4)cn3)c2)cn1` [Example 153, (3-Hydroxy-azetidin-1-yl)-[4-{2-[3-(1-methyl-1H-pyrazol-4-yl)-phenyl]-pyrimidin-5-yl}-1-(tetrahydro-pyran-4-yl)-1H-pyrazol-3-yl]-methanone], the pIC50 is 5.30 to 6.00.
Take `CC(=O)N1CC[C@@H](n2cc(-c3cnc(-c4cccc(-c5cnn(C)c5)c4)nc3)cn2)C1` [Example 130, 1-[(R)-3-(4-{2-[3-(1-Methyl-1H-pyrazol-4-yl)-phenyl]-pyrimidin-5-yl}-pyrazol-1-yl)-pyrrolidin-1-yl]-ethanone]: the pIC50 was 5.30 to 6.00.
Take `CC(=O)N1CC[C@H](n2cc(-c3cnc(-c4cccc(-c5cnn(C)c5)c4)nc3)cn2)C1` [Example 126, 1-[(S)-3-(4-{2-[3-(1-Methyl-1H-pyrazol-4-yl)-phenyl]-pyrimidin-5-yl}-pyrazol-1-yl)-pyrrolidin-1-yl]-ethanone]: the pIC50 was 6.00 to 7.00.
For the molecule `Cn1cc(-c2cccc(-c3ncc(-c4cnn(C5CCCN(S(C)(=O)=O)C5)c4)cn3)c2)cn1` (stereo in doubt) [Example 272, 5-[(R)-1-(1-Methanesulfonyl-piperidin-3-yl)-1H-pyrazol-4-yl]-2-[3-(1-methyl-1H-pyrazol-4-yl)-phenyl]-pyrimidine], the pIC50 is more than 7.00.
Then `CC(=O)N1CC[C@@H](n2cc(-c3cnc(-c4cccc(-c5cnn(C)c5)c4)nc3)cn2)[C@H](O)C1` (single isomer, unassigned) [Example 226], with 6.00 to 7.00.
Regarding `CO[C@H]1CC[C@@H](n2cc(-c3cnc(-c4cccc(-c5cnn(C)c5)c4)nc3)cn2)CC1` [Example 252, Cis-5-[1-(4-Methoxy-cyclohexyl)-1H-pyrazol-4-yl]-2-[3-(1-methyl-1H-pyrazol-4-yl)-phenyl]-pyrimidine], the pIC50 is more than 7.00.
Then `COCCO[C@H]1CC[C@H](n2cc(-c3cnc(-c4cccc(-c5cnn(C)c5)c4)nc3)cn2)CC1` [Example 217, trans-5-{1-[4-(2-Methoxy-ethoxy)-cyclohexyl]-1H-pyrazol-4-yl}-2-[3-(1-methyl-1H-pyrazol-4-yl)-phenyl]-pyrimidine], with more than 7.00; and `CN1CCC[C@H]1C(=O)N1CCC(n2cc(-c3cnc(-c4cccc(-c5cnn(C)c5)c4)nc3)cn2)CC1` [Example 123, [4-(4-{2-[3-(1-Methyl-1H-pyrazol-4-yl)-phenyl]-pyrimidin-5-yl}-pyrazol-1-yl)-piperidin-1-yl]-((S)-1-methyl-pyrrolidin-2-yl)-methanone], with 6.00 to 7.00.
With `Cn1cc(-c2cccc(-c3ncc(-c4cnn(C5CCOC6(CCOCC6)C5)c4)cn3)c2)cn1` (stereo not drawn) [Example 267, 5-[1-(1,9-Dioxa-spiro[5.5]undec-4-yl)-1H-pyrazol-4-yl]-2-[3-(1-methyl-1H-pyrazol-4-yl)-phenyl]-pyrimidine], the pIC50 is more than 7.00.
The same measure for `Cn1cc(-c2cccc(-c3ncc(-c4cnn(CC5CNC5)c4)cn3)c2)cn1` [Example 66, 5-(1-Azetidin-3-ylmethyl-1H-pyrazol-4-yl)-2-[3-(1-methyl-1H-pyrazol-4-yl)-phenyl]-pyrimidine hydrochloride]: 6.00 to 7.00; for `Cn1cc(-c2cccc(-c3ncc(-c4cnn([C@H]5CC[C@H](C(=O)N6CC[C@H](O)C6)CC5)c4)cn3)c2)cn1` [Example 205, trans-((S)-3-Hydroxy-pyrrolidin-1-yl)-[4-(4-{2-[3-(1-methyl-1H-pyrazol-4-yl)-phenyl]-pyrimidin-5-yl}-pyrazol-1-yl)-cyclohexyl]-methanone]: more than 7.00.
As for `Cn1cc(-c2cccc(-c3ncc(-c4cn(C5CCOCC5)nc4C(=O)NCCO)cn3)c2)cn1` [Example 154, 4-{2-[3-(1-Methyl-1H-pyrazol-4-yl)-phenyl]-pyrimidin-5-yl}-1-(tetrahydro-pyran-4-yl)-1H-pyrazole-3-carboxylic acid (2-hydroxy-ethyl)-amide], the pIC50 is 5.30 to 6.00.
For the molecule `Cn1cc(-c2cccc(-c3ncc(-c4cnn(CC(=O)N5C[C@@H]6C[C@H]5CO6)c4)cn3)c2)cn1` [Example 92, 2-(4-{2-[3-(1-Methyl-1H-pyrazol-4-yl)-phenyl]-pyrimidin-5-yl}-pyrazol-1-yl)-1-(1S,4S)-2-oxa-5-aza-bicyclo[2.2.1]hept-5-yl-ethanone], the pIC50 was 6.00 to 7.00.
The same measure for `CN(C)CCNC(=O)[C@H]1CC[C@H](n2cc(-c3cnc(-c4cccc(-c5cnn(C)c5)c4)nc3)cn2)CC1` [Example 171, 4-(4-{2-[3-(1-Methyl-1H-pyrazol-4-yl)-phenyl]-pyrimidin-5-yl}-pyrazol-1-yl)-cyclohexanecarboxylic acid (2-dimethylamino-ethyl)-amide]: more than 7.00; for `Cn1cc(-c2cccc(-c3ncc(-c4cnn(C5CCNCC5(F)F)c4)cn3)c2)cn1` (stereo not drawn) [Example 259, 5-[1-(3,3-Difluoro-piperidin-4-yl)-1H-pyrazol-4-yl]-2-[3-(1-methyl-1H-pyrazol-4-yl)-phenyl]-pyrimidine]: 6.00 to 7.00.
The same measure for `Cc1ccc(-c2cccc(-c3ncc(-c4cnn([C@H]5CC[C@H](C(=O)N(C)C)CC5)c4)cn3)c2)nn1` [Example 237, Trans-4-(4-{2-[3-(6-Methyl-pyridazin-3-yl)-phenyl]-pyrimidin-5-yl}-pyrazol-1-yl)-cyclohexanecarboxylic acid dimethylamide]: 5.30 to 6.00.
Then `Cc1nn(C2CCC(O)CC2)cc1-c1cnc(-c2cccc(-c3cnn(C)c3)c2)nc1` (stereo not drawn) [Example 291, 4-(3-Methyl-4-{2-[3-(1-methyl-1H-pyrazol-4-yl)-phenyl]-pyrimidin-5-yl}-pyrazol-1-yl)-cyclohexanol], with 6.00 to 7.00.
`CO[C@H]1CCN(C(=O)[C@H]2CC[C@H](n3cc(-c4cnc(-c5cccc(-c6cnn(C)c6)c5)nc4)cn3)CC2)C1` [Example 191, Trans-((S)-3-Methoxy-pyrrolidin-1-yl)-[4-(4-{2-[3-(1-methyl-1H-pyrazol-4-yl)-phenyl]-pyrimidin-5-yl}-pyrazol-1-yl)-cyclohexyl]-methanone]: the pIC50 is more than 7.00.
Regarding `CN1CCC(n2cc(-c3cnc(-c4cccc(-c5cnn(C)c5)c4)nc3)cn2)CC1` [Example 6, 5-[1-(1-Methyl-piperidin-4-yl)-1H-pyrazol-4-yl]-2-[3-(1-methyl-1H-pyrazol-4-yl)-phenyl]-pyrimidine], the pIC50 was 6.00 to 7.00.
As to `Cn1cc(-c2cccc(-c3ncc(-c4cn[nH]c4)cn3)c2)cn1` [Example 3, 2-[3-(1-methyl-1H-pyrazol-4-yl)phenyl]-5-(1H-pyrazol-4-yl)pyrimidine], the pIC50 was 6.00 to 7.00.
With `Cn1cc(-c2cccc(-c3ncc(-c4cnn(C5CCC6(CCC(=O)N6)CC5)c4)cn3)c2)cn1` (single isomer, unassigned) [Example 251, Trans-8-(4-{2-[3-(1-Methyl-1H-pyrazol-4-yl)-phenyl]-pyrimidin-5-yl}-pyrazol-1-yl)-1-aza-spiro[4.5]decan-2-one], the pIC50 is 6.00 to 7.00.
The same measure for `COCCCn1cc(-c2cnc(-c3cccc(-c4cnn(C)c4)c3)nc2)cn1` [Example 27, 5-[1-(3-Methoxy-propyl)-1H-pyrazol-4-yl]-2-[3-(1-methyl-1H-pyrazol-4-yl)-phenyl]-pyrimidine]: 6.00 to 7.00; for `Cn1cc(-c2cccc(-c3ncc(-c4cnn(C5CCCOC5)c4)cn3)c2)cn1` (stereo not drawn) [Example 221, 2-[3-(1-Methyl-1H-pyrazol-4-yl)-phenyl]-5-[1-(tetrahydro-pyran-3-yl)-1H-pyrazol-4-yl]-pyrimidine]: 6.00 to 7.00.

Source of the values: patent US9216991B2 (Ares Trading S.A., priority 2012, dated 2015).
